Results from ChEMBL document CHEMBL4706604, “Design, synthesis and biological evaluation of indanone-chalcone hybrids as potent and selective hCES2A inhibitors” (Eur J Med Chem, 2021).

Columns and labels:
Cocaine esterase = molecular target: T1, Cocaine esterase (Homo sapiens, UniProt O00748); assay: Inhibition of hCES2A in human liver microsome assessed as reduction in fluorescein diacetate hydrolysis preincubated for 10 mins followed by substrate addition measured after 20 mins by fluorescence analysis; assay type: microsomes
T1 sequence (O00748 whole entry): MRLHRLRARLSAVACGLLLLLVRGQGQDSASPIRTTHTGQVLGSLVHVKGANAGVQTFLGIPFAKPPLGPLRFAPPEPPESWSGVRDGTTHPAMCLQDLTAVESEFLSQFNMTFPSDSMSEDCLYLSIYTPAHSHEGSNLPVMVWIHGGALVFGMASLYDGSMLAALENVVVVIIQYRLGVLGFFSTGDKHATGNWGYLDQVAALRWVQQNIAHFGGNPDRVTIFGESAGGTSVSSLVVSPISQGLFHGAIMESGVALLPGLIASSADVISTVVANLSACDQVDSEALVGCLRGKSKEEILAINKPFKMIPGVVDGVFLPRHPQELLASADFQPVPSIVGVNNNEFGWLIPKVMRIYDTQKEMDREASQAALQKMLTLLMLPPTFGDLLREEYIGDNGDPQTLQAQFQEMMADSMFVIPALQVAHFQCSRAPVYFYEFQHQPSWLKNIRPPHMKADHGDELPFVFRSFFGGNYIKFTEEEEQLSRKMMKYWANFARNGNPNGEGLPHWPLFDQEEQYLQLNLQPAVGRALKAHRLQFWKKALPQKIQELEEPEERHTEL

[1] = Metabolic stability at phase 2 in human liver microsomes assessed as half life at 10 uM by LC-UV analysis
Liver carboxylesterase 1 = molecular target: T2, Liver carboxylesterase 1 (Homo sapiens, UniProt P23141); assay: Inhibition of hCES1A in human liver microsome assessed as reduction in D-Iuciferin methyl ester hydrolysis preincubated for 10 mins followed by substrate addition measured after 10 mins by luminescence analysis; assay type: microsomes
T2 sequence (P23141 whole entry): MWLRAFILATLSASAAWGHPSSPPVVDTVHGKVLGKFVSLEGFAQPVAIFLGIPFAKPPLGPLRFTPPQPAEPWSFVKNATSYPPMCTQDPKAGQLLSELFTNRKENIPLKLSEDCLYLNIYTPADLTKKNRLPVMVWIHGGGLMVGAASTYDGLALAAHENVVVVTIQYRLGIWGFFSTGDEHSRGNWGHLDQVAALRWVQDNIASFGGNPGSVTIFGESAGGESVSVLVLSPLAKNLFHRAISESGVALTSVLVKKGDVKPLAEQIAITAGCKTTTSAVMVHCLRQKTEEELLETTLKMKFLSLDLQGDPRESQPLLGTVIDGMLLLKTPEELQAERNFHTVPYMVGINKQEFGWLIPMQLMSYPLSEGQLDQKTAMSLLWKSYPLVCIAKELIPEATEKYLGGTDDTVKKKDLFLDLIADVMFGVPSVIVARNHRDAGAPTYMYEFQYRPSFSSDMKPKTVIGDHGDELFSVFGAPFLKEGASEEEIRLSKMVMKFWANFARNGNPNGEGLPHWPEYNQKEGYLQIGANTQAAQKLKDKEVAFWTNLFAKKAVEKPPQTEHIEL

Cholinesterase = Cholinesterase (Homo sapiens, UniProt P06276); assay: Inhibition of BChE in human plasma assessed as reduction in butyrylthiocholineiodide hydrolysis preincubated for 3 mins followed by substrate addition; assay type: cell-free
Chain of Cholinesterase (P06276 whole entry): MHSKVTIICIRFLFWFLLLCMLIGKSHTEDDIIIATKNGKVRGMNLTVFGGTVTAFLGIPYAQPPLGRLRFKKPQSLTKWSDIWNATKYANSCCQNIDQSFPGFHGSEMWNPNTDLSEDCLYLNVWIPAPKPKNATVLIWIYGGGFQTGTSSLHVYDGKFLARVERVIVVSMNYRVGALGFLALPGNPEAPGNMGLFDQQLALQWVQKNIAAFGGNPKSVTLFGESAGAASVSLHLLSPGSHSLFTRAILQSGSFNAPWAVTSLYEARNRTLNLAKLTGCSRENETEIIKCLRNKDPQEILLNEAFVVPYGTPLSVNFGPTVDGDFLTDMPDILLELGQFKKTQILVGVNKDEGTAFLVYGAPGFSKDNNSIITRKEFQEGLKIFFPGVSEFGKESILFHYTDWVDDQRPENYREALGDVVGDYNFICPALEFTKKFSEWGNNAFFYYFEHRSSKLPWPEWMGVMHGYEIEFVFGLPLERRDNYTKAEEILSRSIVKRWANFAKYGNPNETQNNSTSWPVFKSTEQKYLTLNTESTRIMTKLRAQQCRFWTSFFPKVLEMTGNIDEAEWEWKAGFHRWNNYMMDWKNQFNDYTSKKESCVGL

[2] = Metabolic stability at phase 1 in human liver microsomes assessed as half life at 10 uM by LC-UV analysis

Row | Compound | IC50 (Cocaine esterase) [µM] | further results
1 | COc1ccc(/C=C2\Cc3ccc(O)cc3C2=O)cc1 | 56 | –
2 | O=C1/C(=C/c2ccc(O)cc2)Cc2ccc(O)cc21 | 5.94 | –
3 | COc1ccc2c(c1)C(=O)/C(=C/c1ccc(O)c(OC)c1)C2 | 2.91 | –
4 | COc1ccc(/C=C2\Cc3ccc(O)cc3C2=O)c(OC)c1OC | 5.23 | –
5 | O=C1/C(=C/c2ccc(O)c(O)c2)Cc2ccc(O)cc21 | 2.81 | –
6 | COc1cc(/C=C2\Cc3ccc(N4CCCC4)cc3C2=O)ccc1O | – | half-life at 10 µM [1]: 1.72 h; IC50 (Liver carboxylesterase 1): > 100 µM; IC50 (Cholinesterase): > 100 µM; half-life at 10 µM [2]: 1.6 h
7 | COc1cc(/C=C2\Cc3ccc(OC(C)C)cc3C2=O)ccc1O | 2.86 | –

Further compounds by falling IC50 (Cocaine esterase), results first:

Row | IC50 (Cocaine esterase) [µM] | Compound | further results
8 | 1.62 | CCCOc1ccc2c(c1)C(=O)/C(=C/c1ccc(O)c(OC)c1)C2 | –
9 | 1.48 | COc1cc(/C=C2\Cc3ccc(N)cc3C2=O)ccc1O | –
10 | 1.31 | COc1cc(/C=C2\Cc3ccccc3C2=O)ccc1O | –
11 | 1.09 | COc1cc(/C=C2\Cc3ccc(O)cc3C2=O)ccc1O | –
